Measured values from paper PMC6479757, “Coralmycin Derivatives with Potent Anti-Gram Negative Activity Produced by the Myxobacteria Corallococcus coralloides M23” (Molecules, 2019).
≈ marks a conversion by molar mass, not a printed value. Read-outs that look alike come from different tables or passages of the source.

Legend:
[1] = tested on: Enterococcus faecalis KCTC 5191; assay: Antibacterial susceptibility, broth microdilution MIC; assay type: cell-based; conditions: KCTC5191, 24-h incubation at 37 °C
Experimental: (§1) Whole-cell antimicrobial activities were determined using a broth microdilution method described previously. Most of the test strains were grown to mid-log phase in Mueller–Hinton broth and diluted 1,000-fold in the same medium. Cells (10^5/mL) were dispensed at 0.2 mL/well in 96-well microtiter plates. Streptococcus pneumonia and Acinetobacter baumanii were grown in Todd–Hewitt medium and nutrient broth, respectively. […]. Cells were treated with 0.05% DMSO as a vehicle control. The MICs were determined in triplicate by serial two-fold dilutions of the test compounds. […] Bacterial growth was determined by measuring the absorption at 650 nm using a microtiter enzyme-linked immunosorbent assay (ELISA) reader (Molecular Devices Corporation, Sunnyvale, CA, USA).

[2] = tested on: Streptococcus pneumonia KCTC 5412; assay: as above; assay type: cell-based; conditions: Streptococcus pneumoniae, KCTC5412, Todd–Hewitt medium, 24-h incubation at 37 °C
Experimental: as §1

QRSA CCARM 3519 = assay: as above; assay type: cell-based; conditions: Staphylococcus aureus
Experimental: as §1

E. coli CCARM 1356 = assay: as above; assay type: cell-based; conditions: Escherichia coli, CCARM1356, 24-h incubation at 37 °C
Experimental: as §1

MRSA CCARM 3506 = assay: as above; assay type: cell-based; conditions: Staphylococcus aureus, 24-h incubation at 37 °C
Experimental: as §1

[3] = tested on: Pseudomonas aeruginosa KCTC 2004; assay: as above; assay type: cell-based; conditions: for MIC: KCTC2004, Pseudomonas aeruginosa KCTC 2004, 24-h incubation at 37 °C; for antibacterial activities against P. aeruginosa: in words
Experimental: as §1

QRSA CCARM 3505 = assay: as above; assay type: cell-based; conditions: Staphylococcus aureus
Experimental: as §1

E. coli KCTC 1682 = assay: as above; assay type: cell-based; conditions: Escherichia coli
Experimental: as §1

[4] = tested on: Klebsiella pneumoniae KCTC 22057; assay: as above; assay type: cell-based; conditions: for MIC: KCTC22057, Klebsiella pneumoniae KCTC 22057, 24-h incubation at 37 °C; for growth inhibition of K. pneumonia: at 32 μg/mL
Experimental: as §1

[5] = tested on: Acinetobacter baumannii KCTC 2508; assay: as above; assay type: cell-based; conditions: KCTC2508, nutrient broth, 24-h incubation at 37 °C
Experimental: as §1

Gram-negative bacteria = assay: Antibacterial activity against Gram-negative bacteria; assay type: cell-based; conditions: at 32 μg/mL
Experimental: (§2) Whole-cell antimicrobial activities were determined using a broth microdilution method described previously. Most of the test strains were grown to mid-log phase in Mueller–Hinton broth and diluted 1,000-fold in the same medium. Cells (10^5/mL) were dispensed at 0.2 mL/well in 96-well microtiter plates. Streptococcus pneumonia and Acinetobacter baumanii were grown in Todd–Hewitt medium and nutrient broth, respectively. […] Cells were treated with 0.05% DMSO as a vehicle control. The MICs were determined in triplicate by serial two-fold dilutions of the test compounds. […] Bacterial growth was determined by measuring the absorption at 650 nm using a microtiter enzyme-linked immunosorbent assay (ELISA) reader (Molecular Devices Corporation, Sunnyvale, CA, USA).

MRSA CCARM 3167 = assay: Antibacterial susceptibility, broth microdilution MIC; assay type: cell-based; conditions: Staphylococcus aureus, 24-h incubation at 37 °C
Experimental: as §1

E. coli DNA gyrase = target: T1, E. coli DNA gyrase (Escherichia coli, UniProt P0AES4+P0AES6); assay: DNA gyrase supercoiling assay; assay type: biochemical
T1 construct: purchased TopoGEN TG2001G
Experimental: The inhibitory activities of coralmycins on the supercoiling activity of DNA gyrase were investigated using a ‘Purified E. coli DNA Gyrase Drug Screening Kit’ (TopoGEN #TG2001G, Buena Vista, CO, USA). […] The reaction was terminated by the addition of 2 μL of 10% (w/v) SDS and 2 μL of 10× DNA gel loading dye (bromophenol blue). Then, 20 μL of chloroform:isoamyl alcohol (24:1 mixture) was added, and the mixture was vortexed and then centrifuged. The samples in the blue phase were run on 1% (w/v) agarose gel and were visualized using ethidium bromide. All reactions were performed in triplicate. To calculate the IC50 values, the band densities were measured using ImageJ (National Institutes of Health, Bethesda, Maryland, MD, USA).

[6] = tested on: Staphylococcus aureus RN 4220; assay: Antibacterial susceptibility, broth microdilution MIC; assay type: cell-based; conditions: RN4220, 24 h
Experimental: as §2

tested bacterial strains = assay: Antibacterial activity against all tested strains; assay type: cell-based; conditions: at 32 μg/mL
Experimental: as §2

[7] = KCTC1682, 24-h incubation at 37 °C, Table 6 and Table S1, read-out: MIC
[8] = KCTC1682, Table 7, read-out: MIC, antibacterial activity on E. coli KCTC 1682
[9] = CCARM3519, QRSA CCARM 3519, 24-h incubation at 37 °C, read-out: MIC
[10] = CCARM3505, QRSA CCARM 3505, 24-h incubation at 37 °C, read-out: MIC
[11] = relaxed plasmid, 37 °C for 30 min, agarose gel band densities, read-out: IC50, inhibition of the supercoiling activity of E. coli DNA gyrase
[12] = KCTC1682, 24 h, Table 7, read-out: MIC, antibacterial activity on E. coli KCTC 1682

T1 sequence (P0AES4 whole entry, one chain of several): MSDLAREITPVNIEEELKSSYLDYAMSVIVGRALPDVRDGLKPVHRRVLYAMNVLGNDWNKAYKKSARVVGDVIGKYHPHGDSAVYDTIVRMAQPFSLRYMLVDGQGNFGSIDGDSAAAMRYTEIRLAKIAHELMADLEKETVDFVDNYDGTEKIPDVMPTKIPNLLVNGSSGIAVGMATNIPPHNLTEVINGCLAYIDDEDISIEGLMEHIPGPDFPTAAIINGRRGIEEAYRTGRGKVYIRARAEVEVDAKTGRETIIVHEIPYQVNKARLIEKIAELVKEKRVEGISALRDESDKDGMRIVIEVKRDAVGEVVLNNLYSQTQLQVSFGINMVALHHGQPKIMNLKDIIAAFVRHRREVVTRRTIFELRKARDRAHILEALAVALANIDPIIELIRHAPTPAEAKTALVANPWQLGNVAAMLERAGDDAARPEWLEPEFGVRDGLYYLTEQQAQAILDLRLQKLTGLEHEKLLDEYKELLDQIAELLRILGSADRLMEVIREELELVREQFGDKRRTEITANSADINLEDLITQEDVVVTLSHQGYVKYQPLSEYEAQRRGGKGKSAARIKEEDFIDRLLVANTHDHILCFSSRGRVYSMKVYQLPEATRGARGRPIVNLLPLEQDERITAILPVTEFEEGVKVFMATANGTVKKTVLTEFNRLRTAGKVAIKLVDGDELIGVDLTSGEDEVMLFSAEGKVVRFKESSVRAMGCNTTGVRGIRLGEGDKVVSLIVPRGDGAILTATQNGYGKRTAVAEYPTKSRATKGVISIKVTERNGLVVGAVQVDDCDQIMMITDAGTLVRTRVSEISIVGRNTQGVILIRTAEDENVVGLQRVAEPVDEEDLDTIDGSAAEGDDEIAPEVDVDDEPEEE

Row | SMILES | MIC [1] [µg/mL] | MIC [2] [µg/mL] | MIC (E. coli CCARM 1356) [µg/mL] | MIC (MRSA CCARM 3506) [µg/mL] | MIC [3] [µg/mL] | MIC (E. coli KCTC 1682; [7]) [µg/mL] | MIC (E. coli KCTC 1682; [8]) [µg/mL] | MIC [4] [µg/mL] | MIC [5] [µg/mL] | MIC (QRSA CCARM 3519; [9]) [µg/mL] | MIC (QRSA CCARM 3505; [10]) [µg/mL] | MIC (MRSA CCARM 3167) [µg/mL] | IC50 (E. coli DNA gyrase; [11]) [nM] | MIC [6] [µg/mL] | further results
1 | O=C(O)c1cn(C2CC2)c2cc(N3CCNCC3)c(F)cc2c1=O [Cip, Ciprofloxacin, reference compound] | 0.5 (≈ 1.51 µM) | 0.25 (≈ 0.754 µM) | 64 (≈ 193 µM) | 2 (≈ 6.04 µM) | 0.03 (≈ 0.0905 µM) | 0.06 (≈ 0.181 µM) | 0.06 (≈ 0.181 µM) | 0.015 (≈ 0.0453 µM) | 0.25 (≈ 0.754 µM) |  |  |  |  |  | MIC (QRSA CCARM 3519; CCARM3519, 24 h): 128 µg/mL (≈ 386 µM); MIC (QRSA CCARM 3505; CCARM3505, 24 h): 128 µg/mL (≈ 386 µM)
2 | CO[C@@H](C(=O)O)[C@H](NC(=O)c1ccc(NC(=O)c2ccc([N+](=O)[O-])cc2)cc1)C(=O)Nc1ccc(C(=O)Nc2ccc(C(=O)Nc3ccc(C(=O)O)cc3OC(C)C)c(O)c2OC(C)C)cc1 [Compound 1, Coralmycin C] | 8 (≈ 8.69 µM) | 4 (≈ 4.34 µM) | > 32 | 4 (≈ 4.34 µM) | > 32 | > 32 | > 32 | > 32 | > 32 | 4 (≈ 4.34 µM) | 4 (≈ 4.34 µM) | 4 (≈ 4.34 µM) | 420 | 4 (≈ 4.34 µM) | antibacterial activity against Gram-negative bacteria (Gram-negative bacteria): no antibacterial activity
3 | CO[C@@H](C(N)=O)[C@H](NC(=O)c1ccc(NC(=O)c2ccc(N)cc2)cc1)C(=O)Nc1ccc(C(=O)Nc2ccc(C(=O)Nc3ccc(C(=O)O)cc3OC(C)C)c(O)c2OC(C)C)cc1 [Compound 2, Coralmycin D] | 1 (≈ 1.12 µM) | 2 (≈ 2.25 µM) | 1 (≈ 1.12 µM) | 0.5 (≈ 0.562 µM) | > 32 | 1 (≈ 1.12 µM) | 1 (≈ 1.12 µM) | > 32 | 4 (≈ 4.49 µM) | 1 (≈ 1.12 µM) | 1 (≈ 1.12 µM) | 0.5 (≈ 0.562 µM) | 510 | 0.25 (≈ 0.281 µM) | growth inhibition of P. aeruginosa ([3]; at 32 μg/mL): did not inhibit the growth; growth inhibition of K. pneumonia [4]: did not inhibit the growth
4 | CO[C@@H](C(N)=O)[C@H](NC(=O)c1ccc(N)cc1)C(=O)Nc1ccc(C(=O)Nc2ccc(C(=O)Nc3ccc(C(=O)O)cc3OC(C)C)c(O)c2OC(C)C)cc1 [Compound 3, Coralmycin E] | > 32 | > 32 | > 32 | > 32 | > 32 | > 32 | > 32 | > 32 | > 32 | > 32 | > 32 | > 32 | 39100 | > 32 | antibacterial activities against any of the tested bacterial strains (tested bacterial strains): no antibacterial activities
5 | CCOc1cc(C(=O)O)ccc1NC(=O)c1ccc(NC(=O)c2ccc(N)cc2)c(OCC)c1O [Compound 4, Coralmycin F] | > 32 | > 32 | > 32 | > 32 | > 32 | > 32 | > 32 | > 32 | > 32 | > 32 | > 32 | > 32 |  | > 32 | IC50 (E. coli DNA gyrase): > 300000 nM
6 | COc1cc(C(=O)O)ccc1NC(=O)c1ccc(NC(=O)c2ccc(N)cc2)c(OC(C)C)c1O [Compound 5, Coralmycin G] | > 32 | > 32 | > 32 | > 32 | > 32 | > 32 |  | > 32 | > 32 | > 32 | > 32 | > 32 |  | > 32 | 
7 | CCOc1c(NC(=O)c2ccc(N)cc2)ccc(C(=O)Nc2ccc(C(=O)O)cc2OC(C)C)c1O [Compound 6, Coralmycin H] | > 32 | > 32 | > 32 | > 32 | > 32 | > 32 |  | > 32 | > 32 | > 32 | > 32 | > 32 |  | > 32 | 
8 | CCOc1cc(C(=O)O)ccc1NC(=O)c1ccc(NC(=O)c2ccc(N)cc2)c(OC(C)C)c1O [Compound 7, Coralmycin I] | > 32 | > 32 | > 32 | > 32 | > 32 | > 32 |  | > 32 | > 32 | > 32 | > 32 | > 32 |  | > 32 | 
9 | COc1cc(C(=O)O)ccc1NC(=O)c1ccc(NC(=O)c2ccc(NC(=O)[C@@H](NC(=O)c3ccc(NC(=O)c4ccc([N+](=O)[O-])cc4)cc3)[C@@H](OC)C(N)=O)cc2)c(OC(C)C)c1O [Compound 8, cystobactamid 891-2] | 1 (≈ 1.12 µM) | 2 (≈ 2.24 µM) | 0.5 (≈ 0.561 µM) | 0.125 (≈ 0.14 µM) | 4 (≈ 4.49 µM) | 0.25 (≈ 0.28 µM) |  | > 32 | 1 (≈ 1.12 µM) | 1 (≈ 1.12 µM) | 2 (≈ 2.24 µM) | 0.5 (≈ 0.561 µM) | 50 | 0.25 (≈ 0.28 µM) | antibacterial activities against P. aeruginosa [3]: weak antibacterial activities; MIC (E. coli KCTC 1682; [12]): 0.25 µg/mL (≈ 0.28 µM); growth inhibition of K. pneumonia [4]: did not inhibit the growth
10 | CCOc1cc(C(=O)O)ccc1NC(=O)c1ccc(NC(=O)c2ccc(NC(=O)[C@@H](NC(=O)c3ccc(NC(=O)c4ccc([N+](=O)[O-])cc4)cc3)[C@@H](OC)C(N)=O)cc2)c(OC(C)C)c1O [Compound 9, cystobactamid 905-2] | 0.5 (≈ 0.552 µM) | 1 (≈ 1.1 µM) | 1 (≈ 1.1 µM) | 0.25 (≈ 0.276 µM) | 8 (≈ 8.83 µM) | 0.5 (≈ 0.552 µM) |  | > 32 | 0.5 (≈ 0.552 µM) | 1 (≈ 1.1 µM) | 2 (≈ 2.21 µM) | 0.25 (≈ 0.276 µM) | 130 | 0.125 (≈ 0.138 µM) | antibacterial activities against P. aeruginosa [3]: weak antibacterial activities; MIC (E. coli KCTC 1682; [12]): 0.25 µg/mL (≈ 0.276 µM); growth inhibition of K. pneumonia [4]: did not inhibit the growth
11 | CO[C@@H](C(N)=O)[C@H](NC(=O)c1ccc(NC(=O)c2ccc([N+](=O)[O-])cc2)cc1)C(=O)Nc1ccc(C(=O)Nc2ccc(C(=O)Nc3ccc(C(=O)O)cc3OC(C)C)c(O)c2OC(C)C)cc1 [Compound 11, cystobactamid 919-2, reference compound] | 0.25 (≈ 0.272 µM) | 1 (≈ 1.09 µM) | 2 (≈ 2.17 µM) | 0.25 (≈ 0.272 µM) | 4 (≈ 4.35 µM) | 1 (≈ 1.09 µM) | 1 (≈ 1.09 µM) | 4 (≈ 4.35 µM) | 2 (≈ 2.17 µM) | 1 (≈ 1.09 µM) | 1 (≈ 1.09 µM) | 0.25 (≈ 0.272 µM) | 950 | 0.125 (≈ 0.136 µM) | 
12 | CO[C@H](C(=O)O)[C@H](NC(=O)c1ccc(NC(=O)c2ccc([N+](=O)[O-])cc2)cc1)C(=O)Nc1ccc(C(=O)Nc2ccc(C(=O)Nc3ccc(C(=O)O)cc3OC(C)C)c(O)c2OC(C)C)cc1 [Compound 13, coralmycin B, reference compound] | 4 (≈ 4.34 µM) | > 16 | 16 (≈ 17.4 µM) | 1 (≈ 1.09 µM) | > 16 | 4 (≈ 4.34 µM) | 4 (≈ 4.34 µM) | > 16 | 4 (≈ 4.34 µM) |  |  | 1 (≈ 1.09 µM) | 1070 | 2 (≈ 2.17 µM) | 
